This passage reports IC50 results from ChEMBL document CHEMBL2069279, “Target fishing and docking studies of the novel derivatives of aryl-aminopyridines with potential anticancer activity” (Bioorg Med Chem, 2012).

Assay [1] deals with PBMC. The assay is described as follows: Cytotoxicity against human PBMC cells in absence of phytohemagglutinin after 72 hrs by MTT assay. The class given is cell-based. For orientation: Formazan colour is commonly taken as a measure of viable cells.
Assay [2] can be described thus: Cytotoxicity against human Fem-X cells after 72 hrs by MTT assay. The format is functional, cell-based.
For assay [3], the system named is HeLa. The assay is described as follows: Cytotoxicity against human HeLa cells after 72 hrs by MTT assay. The class given is functional, cell-based.
In assay [4] the test system is K562. Nature of the assay: Cytotoxicity against human K562 cells after 72 hrs by MTT assay. The conditions noted are these: K562, 72 h. The format is functional, cell-based.
Assay [5] deals with PBMC. The assay is described as follows: Cytotoxicity against human PBMC cells in presence of phytohemagglutinin after 72 hrs by MTT assay. The class given is cell-based.
Setting [6] is: Homo sapiens, HeLa, 72 h, read-out: IC50.

Structures are written as SMILES.

Take `COc1cccc(Nc2nc3ccccc3cc2-c2ccccc2)c1`: the IC50 is 119 µM in assay [1]; 129 µM in assay [2]; “ND(toxic)” in assay [3] (hela); 76 µM in assay [4]; 81 µM in assay [5].

`Cc1ccc(-c2ccnc(Nc3ccc(F)cc3)c2)cc1`: the IC50 in assay [1] worked out at 127 µM; in assay [2], 79 µM; in assay [3] (setting [6]) it was 146 µM; in assay [4], 54 µM; in assay [5], 146 µM.

`COc1ccc(Nc2c(-c3ccc(OC)cc3)cnc3ccccc23)cc1`: the IC50 in assay [1] was 122 µM; in assay [2] it was 56 µM; in assay [3] (setting [6]) it was 104 µM; in assay [4], 25 µM; in assay [5], 105 µM.

For the molecule `CCc1ccc(Nc2nc3ccccc3cc2-c2ccccc2)cc1`, the IC50 in assay [1] came to 73 µM; in assay [2] it was 92 µM; in assay [3] (setting [6]), 140 µM; in assay [4], 99 µM; in assay [5], 66 µM.

Regarding `COc1ccc(Nc2ccc3ccccc3n2)cc1`, the IC50 in assay [1] came to 91 µM; in assay [2], 43 µM; in assay [3] (setting [6]), 51 µM; in assay [4], 30 µM; in assay [5] it was 70 µM.

For `COc1cccc(Nc2cc(-c3cccc(C(F)(F)F)c3)ccn2)c1`, the IC50 in assay [2] and in assay [3] (setting [6]) was above 200 µM in each case.

On to `COc1ccc(Nc2cccnc2)cc1`, for which the IC50 in assay [1] stood at 96 µM; in assay [2], 118 µM; in assay [3] (setting [6]), 145 µM; in assay [4] it was 68 µM; in assay [5] it was 183 µM.

Consider `CCc1ccc(Nc2cc(-c3cccc(C(F)(F)F)c3)ccn2)cc1`, for which the concentration for half-maximal inhibition (IC50) in assay [2] and in assay [3] (setting [6]) was above 200 µM throughout.

In the case of `COc1ccc(Nc2ccccn2)cc1`, the IC50 in assay [1] was 46 µM; in assay [2], 123 µM; in assay [3] (setting [6]) it was 117 µM; in assay [4] it was 63 µM; in assay [5], 42 µM.

For `Fc1ccc(Nc2ccc3ccccc3n2)cc1`, the IC50 came out at 90 µM in assay [1]; 35 µM in assay [2]; 33 µM in assay [3] (setting [6]); 36 µM in assay [4]; 65 µM in assay [5].

Regarding `COc1ccc(Nc2cc(-c3cccc(C(F)(F)F)c3)ccn2)cc1`, the IC50 in assay [1] was 132 µM; in assay [2], 68 µM; in assay [3] (setting [6]), 140 µM; in assay [4] it was 78 µM; in assay [5] it was 105 µM.

As to `COc1ccc(Nc2c(-c3ccccc3)cnc3ccccc23)cc1`, the concentration for half-maximal inhibition (IC50) in assay [1] came to 72 µM; in assay [2], 35 µM; in assay [3] (setting [6]), 64 µM; in assay [4], 25 µM; in assay [5] it was 62 µM.

On to `COc1ccc(Nc2nc3ccccc3cc2-c2ccc(C)cc2)cc1`, for which the IC50 in assay [1] was found to be 137 µM; in assay [2] it was 65 µM; in assay [3] (setting [6]), 102 µM; in assay [4] it was 75 µM; in assay [5], 118 µM.

For `COc1ccc(Nc2cc(-c3ccc(C)cc3)ccn2)cc1`, the IC50 stood at 52 µM in assay [1]; 33 µM in assay [2]; 43 µM in assay [3] (setting [6]); 19 µM in assay [4]; 34 µM in assay [5].

Broadly, the IC50 is the concentration at which inhibition is half-maximal.
